Measured values as given in patent US11981677B2, “Further substituted triazolo quinoxaline derivatives” (Grünenthal GmbH, priority 2018, dated 2024).

Molecular target: T1, Glucocorticoid Receptor (Homo sapiens, UniProt P04150)
T1 construct: expressed in transfected cells
T1 sequence (P04150 524-758 limits assumed): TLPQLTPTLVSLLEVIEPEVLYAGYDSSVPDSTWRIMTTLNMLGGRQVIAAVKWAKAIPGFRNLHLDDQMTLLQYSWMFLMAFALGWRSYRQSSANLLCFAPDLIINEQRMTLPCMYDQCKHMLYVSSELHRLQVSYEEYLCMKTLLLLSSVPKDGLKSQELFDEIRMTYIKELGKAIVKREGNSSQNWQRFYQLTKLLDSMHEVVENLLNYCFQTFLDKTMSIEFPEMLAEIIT
Experiment: Agonistic mode of action on the glucocorticoid receptor (CHO-Gal4/GR luciferase reporter cell line)
Assay type: cell-based
Details: CHO-Gal4/GR luciferase reporter cells; observed in the agonistic assay or the antagonistic assay (mode not given); read-out: IC50 or EC50 range
Procedure, shortened: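 CHO cells stably expressing GAL4 DBD–GR ligand-binding domain fusion with GAL4-UAS firefly luciferase reporter, seeded 24 h, then treated in Opti-MEM with 8 half-log concentrations from 10 μM to 0.003 μM (0.5% DMSO), quadruplicate. Luminescence read on FLIPR after lysis with Triton/luciferin; EC50 calculated.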

SMILES	IC50 or EC50 (antagonist or agonist mode, not stated per compound) [µM]
COc1c(-c2cc(C)cc3c2ccn3S(C)(=O)=O)cc(F)c2c1-n1c(C)nnc1C(C)(C)N2 [Example 476, 6-Fluoro-9-methoxy-1,4,4-trimethyl-8-(6-methyl-1-methylsulfonyl-1H-indol-4-yl)-5H-[1,2,4]triazolo[4,3-a]quinoxaline]	0.1 to 1
COc1c(-c2cc(F)cc3c(C4CC4)c[nH]c23)cc(F)c2c1-n1c(C)nnc1C(C)(C)N2 [Example 478, 8-(3-Cyclopropyl-5-fluoro-1H-indol-7-yl)-6-fluoro-9-methoxy-1,4,4-trimethyl-5H-[1,2,4]triazolo[4,3-a]quinoxaline]	< 0.1
CNc1c(-c2cccc3c2ccn3C2CC2)cc(F)c2c1-n1c(C)nnc1C(C)(C)N2 [Example 481, 8-(1-cyclopropyl-1H-indol-4-yl)-6-fluoro-N,1,4,4-tetramethyl-4,5-dihydro-[1,2,4]triazolo[4,3-a]quinoxalin-9-amine]	0.1 to 1
COc1c(-c2cccc3c2ccn3S(C)(=O)=O)cc(Cl)c2c1-n1c(C)nnc1C(C)(C)N2 [Example 482, 6-Chloro-9-methoxy-1,4,4-trimethyl-8-(1-methylsulfonyl-1H-indol-4-yl)-5H-[1,2,4]triazolo[4,3-a]quinoxaline]	0.1 to 1
Cc1c(-c2cccc3c2ccn3C)cc(F)c2c1-n1c(C)nnc1C(C)(C)N2 [Example 484, 6-Fluoro-1,4,4,9-tetramethyl-8-(1-methyl-1H-indol-4-yl)-5H-[1,2,4]triazolo[4,3-a]quinoxaline]	< 0.1
COc1c(-c2cccc3c2ccn3C)cc(F)c2c1-n1c(C)nnc1C(C)(C)N2 [Example 485, 6-Fluoro-9-methoxy-1,4,4-trimethyl-8-(1-methyl-1H-indol-4-yl)-5H-[1,2,4]triazolo[4,3-a]quinoxaline]	0.1 to 1

Continued, values first:

IC50 or EC50 (antagonist or agonist mode, not stated per compound) [µM]	SMILES
0.1 to 1	Cc1c(-c2cc(C#N)cc3[nH]ccc23)cc(F)c2c1-n1c(C)nnc1C(C)(C)N2 [Example 477, 4-(6-Fluoro-1,4,4,9-tetramethyl-5H-[1,2,4]triazolo[4,3-a]quinoxalin-8-yl)-1H-indole-6-carbonitrile]
0.1 to 1	CCS(=O)(=O)n1ccc2c(-c3cc(F)c4c(c3NC)-n3c(C)nnc3C(C)(C)N4)cc(F)cc21 [Example 479, [8-[1-(Ethylsulfonyl)-6-fluoro-1H-indol-4-yl]-6-fluoro-1,4,4-trimethyl-5H-[1,2,4]triazolo[4,3-a]quinoxalin-9-yl]-methyl-amine]
0.1 to 1	CNc1c(-c2cc(F)cc3c2ccn3CCO)cc(F)c2c1-n1c(C)nnc1C(C)(C)N2 [Example 480, 2-[6-Fluoro-4-(6-fluoro-1,4,4-trimethyl-9-methylamino-5H-[1,2,4]triazolo[4,3-a]quinoxalin-8-yl)-1H-indol-1-yl]-EtOH]
< 0.1	COc1c(-c2cc(F)cc3c2ccn3S(C)(=O)=O)cc(Cl)c2c1-n1c(C)nnc1C(C)(C)N2 [Example 483, 6-chloro-8-(6-fluoro-1-(methylsulfonyl)-1H-indol-4-yl)-9-methoxy-1,4,4-trimethyl-4,5-dihydro-[1,2,4]triazolo[4,3-a]quinoxaline]
0.1 to 1	CNc1c(-c2cc(F)cc3c2ccn3S(C)(=O)=O)cc(F)c2c1-n1c(C)nnc1C(C)(C)N2 [Example 486, [6-Fluoro-8-(6-fluoro-1-methylsulfonyl-1H-indol-4-yl)-1,4,4-trimethyl-5H-[1,2,4]triazolo[4,3-a]quinoxalin-9-yl]-methyl-amine]
< 0.1	CNc1c(-c2cc(F)cc3c(C)c[nH]c23)cc(F)c2c1-n1c(C)nnc1C(C)(C)N2 [Example 487, [6-Fluoro-8-(5-fluoro-3-methyl-1H-indol-7-yl)-1,4,4-trimethyl-5H-[1,2,4]triazolo[4,3-a]quinoxalin-9-yl]-methyl-amine]
